# Target: T1, STM1221 (Salmonella enterica, UniProt P0A2F2)
# T1 construct: gene cobB; expressed from pET28b in E. coli BL21, nickel-purified
# T1 sequence (P0A2F2 1-273): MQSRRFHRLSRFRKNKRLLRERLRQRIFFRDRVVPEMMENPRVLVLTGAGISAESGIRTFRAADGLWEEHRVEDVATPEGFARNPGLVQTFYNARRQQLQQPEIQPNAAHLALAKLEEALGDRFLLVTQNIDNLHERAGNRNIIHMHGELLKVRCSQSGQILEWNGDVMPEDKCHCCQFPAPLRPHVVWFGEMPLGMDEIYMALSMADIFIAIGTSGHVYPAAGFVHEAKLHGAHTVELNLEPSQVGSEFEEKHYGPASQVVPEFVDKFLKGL
# Assay: HPLC deacylation assay
# Assay type: biochemical
# Conditions: 1 mM NAD+, 1 mM acylated H3K27 13-mer peptide as co-substrate, 5 uM enzyme, 6 mM MgCl2, pH 8.0, 37 °C
structure (smiles),measurement,value
NC(=O)c1ccc[n+]([C@@H]2O[C@H](COP(=O)(O)OP(=O)(O)OC[C@H]3O[C@@H](n4cnc5c(N)ncnc54)[C@H](O)[C@@H]3O)[C@@H](O)[C@H]2O)c1 [NAD^+],HPLC deacylation assay,The reactions without NAD^+ were used as the negative controls
